Data as given in US6821967B2, “Substituted piperazine derivatives, the preparation thereof and their use as medicaments” (Boehringer Ingelheim Pharma KG, priority 1999, dated 2004).

Row | Structure (SMILES) | melting point [°C]
1 | COc1cccc2ccc(N3CCN(CCCCC4(C(=O)NCC(F)(F)F)c5ccccc5-c5ccccc54)CC3)nc12 [Example 36, 9-{4-[4-(8-methoxy-quinolin-2-yl)-piperazin-1-yl]-butyl}-9H-fluorene-9-carboxylic acid-(2,2,2-trifluoro-ethyl)-amide] | 67
2 | O=C(NCC(F)(F)F)C1(CCCCN2CCN(c3nc4ccc(Cl)cc4s3)CC2)c2ccccc2-c2ccccc21 [Example 24, 9-{4-[4-(6-chloro-benzothiazol-2-yl)-piperazin-1-yl]-butyl}-9H-fluorene-9-carboxylic acid-(2,2,2-trifluoro-ethyl)-amide] | 187
3 | O=C(NCc1ccc(F)cc1)C1(CCCCN2CCN(c3ccc4cccc(Cl)c4n3)CC2)c2ccccc2-c2ccccc21 [Example 55, 9-{4-[4-(8-chloro-quinolin-2-yl)-piperazin-1-yl]-butyl}-9H-fluorene-9-carboxylic acid-4-fluoro-benzylamide] | 66
4 | O=C(NCC(F)(F)F)C1(CCCCN2CCN(c3ccc4cc(Cl)ccc4n3)CC2)c2ccccc2-c2ccccc21 [Example 28, 9-{4-[4-(6-chloro-quinolin-2-yl)-piperazin-1-yl]-butyl}-9H-fluorene-9-carboxylic acid-(2,2,2-trifluoro-ethyl)-amide] | 151
5 | C[C@@H]1CN(c2ccc3ccccc3n2)CCN1CCCCC1(C(=O)NCC(F)(F)F)c2ccccc2-c2ccccc21 [Example 39, 9-{4-[(R)-2-methyl-4-quinolin-2-yl-piperazin-1-yl]-butyl}-9H-fluorene-9-carboxylic acid-(2,2,2-trifluoro-ethyl)-amide] | 102
6 | O=C(NCC(F)(F)F)C1(CCCCN2CCN(c3cc(-c4ccccc4)c4ccccc4n3)CC2)c2ccccc2-c2ccccc21 [Example 25, 9-{4-[4-(4-phenyl-quinolin-2-yl)-piperazin-1-yl]-butyl}-9H-fluorene-9-carboxylic acid-(2,2,2-trifluoro-ethyl)-amide] | 105
7 | O=C(NCc1ccc(F)cc1)C1(CCCCN2CCN(c3ncc4ccccc4n3)CC2)c2ccccc2-c2ccccc21 [Example 58, 9-[4-(4-quinazolin-2-yl-piperazin-1-yl)-butyl]-9H-fluorene-9-carboxylic acid-4-fluoro-benzylamide] | 160
8 | Cn1c(N2CCN(CCCCC3(C(=O)NCC(F)(F)F)c4ccccc4-c4ccccc43)CC2)nc2cccnc21 [Example 15, 9-{4-[4-(3-methyl-3H-imidazo[4,5]pyridin-2-yl)-piperazin-1-yl]-butyl}-9H-fluorene-9-carboxylic acid-(2,2,2-trifluoro-ethyl)-amide] | 60
9 | Cn1c(N2CCN(CCCCC3(C(=O)NCC(F)(F)F)c4ccccc4-c4ccccc43)CC2)nc2ccc(F)cc21 [Example 17, 9-{4-[4-(6-fluoro-1-methyl-1H-benzimidazol-2-yl)-piperazin-1-yl]-butyl}-9H-fluorene-9-carboxylic acid-(2,2,2-trifluoro-ethyl)-amide] | 54
10 | C[C@@H]1CN(c2nc3ccccc3o2)C[C@H](C)N1CCCCC1(C(=O)NCC(F)(F)F)c2ccccc2-c2ccccc21 [Example 46, 9-[4-(4-benzoxazol-2-yl-cis-2,6-dimethyl-piperazin-1-yl)-butyl]-9H-fluorene-9-carboxylic acid-(2,2,2-trifluoro-ethyl)-amide] | 163 to 165
11 | CC1CN(CCCCC2(C(=O)NCC(F)(F)F)c3ccccc3-c3ccccc32)CCN1c1ccc2ccccc2n1 (stereo not shown) [Example 40, 9-{4-[3-methyl-4-quinolin-2-yl-piperazin-1-yl]-butyl}-9H-fluorene-9-carboxylic acid-(2,2,2-trifluoro-ethyl)-amide] | 50
12 | CCn1c(N2CCN(CCCCC3(C(=O)NCC(F)(F)F)c4ccccc4-c4ccccc43)CC2)nc2ccccc21 [Example 11, 9-{4-[4-(1-ethyl-1H-benzimidazol-2-yl)-piperazin-1-yl]-butyl}-9H-fluorene-9-carboxylic acid-(2,2,2-trifluoro-ethyl)-amide] | 55
13 | C[C@H]1CN(c2ccc3ccccc3n2)CCN1CCCCC1(C(=O)NCc2ccc(F)cc2)c2ccccc2-c2ccccc21 [Example 64, 9-{4-[(S)-2-methyl-4-quinolin-2-yl-piperazin-1-yl]-butyl}-9H-fluorene-9-carboxylic acid-4-fluoro-benzylamide] | 124
14 | Cn1c(N2CCN(CCCCC3(C(=O)NCc4ccc(F)cc4)c4ccccc4-c4ccccc43)CC2)nc2ccc(F)cc21 [Example 62, 9-{4-[4-(6-fluoro-1-methyl-1H-benzimidazol-2-yl)-piperazin-1-yl]-butyl}-9H-fluorene-9-carboxylic acid-4-fluoro-benzylamide] | 43
15 | O=C(NCC(F)(F)F)C1(CCCCN2CCN(c3cnc4ccccc4n3)CC2)c2ccccc2-c2ccccc21 [Example 22, 9-[4-(4-quinoxalin-2-yl-piperazin-1-yl)-butyl]-9H-fluorene-9-carboxylic acid-(2,2,2-trifluoro-ethyl)-amide] | 142 to 145
16 | C[C@@H]1CN(c2nc3ccccc3n2C)C[C@H](C)N1CCCCC1(C(=O)NCC(F)(F)F)c2ccccc2-c2ccccc21 [Example 43, 9-{4-[cis-2,6-dimethyl-4-(1-methyl-1H-benzimidazol-2-yl)-piperazin-1-yl]-butyl}-9H-fluorene-9-carboxylic acid-(2,2,2-trifluoro-ethyl)-amide] | 77

Results, then the molecule that gave them:

Row | melting point [°C] | Structure (SMILES)
17 | 165 | O=C(NCC(F)(F)F)C1(CCCCN2CCN(c3ccc4cc(Cl)ccc4n3)CC2)c2ccccc2Oc2ccccc21 [Example 105, 9-{4-[4-(6-chloro-quinolin-2-yl)-piperazin-1-yl]-butyl}-9H-xanthene-9-carboxylic acid-(2,2,2-trifluoro-ethyl)-amide]
18 | 136 to 137 | C[C@@H]1CN(c2ccc3c(Cl)cccc3n2)C[C@H](C)N1CCCCC1(C(=O)NCc2ccc(F)cc2)c2ccccc2-c2ccccc21 [Example 66, 9-{4-[4-(5-chloro-quinolin-2-yl)-cis-2,6-dimethyl-piperazin-1-yl]-butyl}-9H-fluorene-9-carboxylic acid-4-fluoro-benzylamide]
19 | 58 to 62 | O=C(NCC(F)(F)F)C1(CCCCN2CCN(c3nc4ccccc4s3)CC2)c2ccccc2Oc2ccccc21 [Example 100, 9-[4-(4-benzothiazol-2-yl-piperazin-1-yl)-butyl]-9H-xanthene-9-carboxylic acid-(2,2,2-trifluoro-ethyl)-amide]
20 | 196 to 197 | O=C(NCC(F)(F)F)C1(CCCCN2CCN(c3nc4ccccc4o3)CC2)c2ccccc2Oc2ccccc21 [Example 101, 9-[4-(4-benzoxazol-2-yl-piperazin-1-yl)-butyl]-9H-xanthene-9-carboxylic acid-(2,2,2-trifluoro-ethyl)-amide]
21 | 145 | COc1ccc(CNC(=O)C2(CCCCN3CCN(c4nc5ccccc5s4)CC3)c3ccccc3-c3ccccc32)cc1 [Example 76, 9-[4-(4-benzothiazol-2-yl-piperazin-1-yl)-butyl]-9H-fluorene-9-carboxylic acid-4-methoxy-benzylamide]
22 | 171 | C[C@@H]1CN(c2nc3ccccc3s2)C[C@H](C)N1CCCCC1(C(=O)NCc2ccc(F)cc2)c2ccccc2-c2ccccc21 [Example 70, 9-[4-(4-benzothiazol-2-yl-cis-2,6-dimethyl-piperazin-1-yl)-butyl]-9H-fluorene-9-carboxylic acid-4-fluoro-benzylamide]
23 | 53 to 55 | COC(=O)CNC(=O)C1(CCCCN2CCN(c3ccc4ccccc4n3)CC2)c2ccccc2-c2ccccc21 [Example 95, 9-[4-(4-quinolin-2-yl-piperazin-1-yl)-butyl]-9H-fluorene-9-carboxylic acid-(methoxycarbonyl-methyl)-amide]
24 | 87 | COCCCNC(=O)C1(CCCCN2CCN(c3ccc4ccccc4n3)CC2)c2ccccc2-c2ccccc21 [Example 93, 9-[4-(4-quinolin-2-yl-piperazin-1-yl)-butyl]-9H-fluorene-9-carboxylic acid-(3-methoxy-propyl)-amide]
25 | 126 | CCCNC(=O)C1(CCCCN2CCN(c3nc4ccccc4n3C)CC2)c2ccccc2-c2ccccc21 [Example 91, 9-{4-[4-(1-methyl-1H-benzimidazol-2-yl)-piperazin-1-yl]-butyl}-9H-fluorene-9-carboxylic acid propylamide]
26 | 45 to 53 | CCCCNC(=O)C1(CCCCN2CCN(c3ccc4ccccc4n3)CC2)c2ccccc2Oc2ccccc21 [Example 118, 9-[4-(4-quinolin-2-yl-piperazin-1-yl)-butyl]-9H-xanthene-9-carboxylic acid-Butylamide]
27 | 162 | C[C@@H]1CN(c2ccc3ccccc3n2)C[C@H](C)N1CCCCC1(C(=O)NCc2ccc(F)c(F)c2)c2ccccc2-c2ccccc21 [Example 98, 9-[4-(cis-2,6-dimethyl-4-quinolin-2-yl-piperazin-1-yl)-butyl]-9H-fluorene-9-carboxylic acid-3,4-difluoro-benzylamide]
28 | 160 | O=C(NCC(F)(F)F)C1(CCCCN2CCN(c3ccc4c(Cl)cccc4n3)CC2)c2ccccc2Oc2ccccc21 [Example 104, 9-{4-[4-(5-chloro-quinolin-2-yl)-piperazin-1-yl]-butyl}-9H-xanthene-9-carboxylic acid-(2,2,2-trifluoro-ethyl)-amide]
29 | 114 to 116 | COc1cccc(CNC(=O)C2(CCCCN3CCN(c4ccc5ccccc5n4)CC3)c3ccccc3-c3ccccc32)c1 [Example 81, 9-[4-(4-quinolin-2-yl-piperazin-1-yl)-butyl]-9H-fluorene-9-carboxylic acid-3-methoxy-benzylamide]
30 | 116 to 118 | O=C(NCc1ccc(F)cc1F)C1(CCCCN2CCN(c3ccc4ccccc4n3)CC2)c2ccccc2-c2ccccc21 [Example 84, 9-[4-(4-quinolin-2-yl-piperazin-1-yl)-butyl]-9H-fluorene-9-carboxylic acid-2,4-difluoro-benzylamide]
31 | 52 to 53 | C[C@H]1CN(c2ccc3ccccc3n2)CCN1CCCCC1(C(=O)NCC(F)(F)F)c2ccccc2Oc2ccccc21 [Example 109, 9-{4-[(S)-2-methyl-4-quinolin-2-yl-piperazin-1-yl]-butyl}-9H-xanthene-9-carboxylic acid-(2,2,2-trifluoro-ethyl)-amide]
